Values after ≈ are worked out from the molar mass of the structure shown.
Tests used:
Klebsiella pneumoniae [1] = test: Ratio of MIC for multidrug-resistant Klebsiella pneumoniae NCTC 13368-7-R1 measured after 10 passages to MIC for multidrug-resistant Klebsiella pneumoniae NCTC 13368-7-R1 measured after 10 passages in presence of efflux pump inhibitor PAbetaN; format: functional
Klebsiella pneumoniae [2] = test: Ratio of MIC for multidrug-resistant Klebsiella pneumoniae NCTC 13368 to MIC for multidrug-resistant Klebsiella pneumoniae NCTC 13368 in presence of efflux pump inhibitor PAbetaN; format: functional
Klebsiella pneumoniae [3] = test: Antimicrobial activity against Klebsiella pneumoniae M6 by microdilution broth method; format: functional
Pseudomonas aeruginosa [4] = test: Antimicrobial activity against Pseudomonas aeruginosa PAO1 by microdilution broth method; format: functional
Enterococcus faecalis = test: Antibacterial activity against vancomycin resistant Enterococcus faecalis NCTC 12201 by microdilution broth method; format: functional
Klebsiella pneumoniae [5] = test: Antimicrobial activity against multidrug-resistant Klebsiella pneumoniae M6 by microdilution broth method; format: functional
Klebsiella pneumoniae [6] = test: Antimicrobial activity against multidrug-resistant Klebsiella pneumoniae 46704 by microdilution broth method; format: functional
Acinetobacter baumannii [7] = test: Antimicrobial activity against multidrug-resistant Acinetobacter baumannii W1 by microdilution broth method; format: functional
Escherichia coli [8] = test: Antimicrobial activity against multidrug-resistant Escherichia coli CFI_160_KPC2 by microdilution broth method; format: functional
Escherichia coli [9] = test: Antimicrobial activity against multidrug-resistant Escherichia coli LEC001 by microdilution broth method; format: functional
Escherichia coli [10] = test: Antimicrobial activity against multidrug-resistant Escherichia coli 319238/UR by microdilution broth method; format: functional
Escherichia coli [11] = test: Antimicrobial activity against multidrug-resistant Escherichia coli NCTC 12923 by microdilution broth method; format: functional
Burkholderia multivorans = test: Antimicrobial activity against multidrug-resistant Burkholderia multivorans C1962 by microdilution broth method; format: functional
Klebsiella pneumoniae [12] = test: Antibacterial activity against multidrug-resistant Klebsiella pneumoniae NCTC 13368 measured after 10 passages by microdilution broth method; format: functional
Klebsiella pneumoniae [13] = test: Antimicrobial activity against multidrug-resistant Klebsiella pneumoniae 16 in presence of efflux pump inhibitor CCCP by microdilution broth method; format: functional
Acinetobacter baumannii [14] = test: Antimicrobial activity against multidrug-resistant Acinetobacter baumannii NCTC 13424 in presence of efflux pump inhibitor CCCP by microdilution broth method; format: functional
Pseudomonas aeruginosa [15] = test: Antimicrobial activity against multidrug-resistant Pseudomonas aeruginosa NCTC 13437 in presence of efflux pump inhibitor CCCP by microdilution broth method; format: functional
Klebsiella pneumoniae [16] = test: Antimicrobial activity against multidrug-resistant Klebsiella pneumoniae NCTC 13438 in presence of efflux pump inhibitor PAbetaN by microdilution broth method; format: functional
Pseudomonas aeruginosa [17] = test: Antimicrobial activity against multidrug-resistant Pseudomonas aeruginosa NCTC 13437 in presence of efflux pump inhibitor PAbetaN by microdilution broth method; format: functional
Klebsiella pneumoniae [18] = test: Ratio of MIC for multidrug-resistant Klebsiella pneumoniae NCTC 13368 to MIC for multidrug-resistant Klebsiella pneumoniae NCTC 13368 in presence of membrane permeabilizer PMBN; format: functional
Pseudomonas aeruginosa [19] = test: Ratio of MIC for Pseudomonas aeruginosa PAO1 to MIC for Pseudomonas aeruginosa PAO1 in presence of membrane permeabilizer PMBN; format: functional
DNA = test: Stabilization of 5'-FAM-TAT-AGA-TAT-AGA-TAT-TTT-ATA-TCT-ATA-TCT-ATA-3'-TAMRA DNA (unknown origin) assessed as reduction in change in melting temperature at 1:1 to 5:1 ligand to DNA ratio measured after 3 hrs by FRET-based assay relative to control; format: ADME, nucleic-acid assay
[20] = Selectivity ratio of cytotoxicity against human WI38 cells to MIC for multidrug-resistant Acinetobacter baumannii AYE; format: toxicity, cell-based
[21] = Selectivity ratio of cytotoxicity against human WI38 cells to MIC for Pseudomonas aeruginosa PAO1; format: toxicity, cell-based
[22] = Selectivity ratio of cytotoxicity against human WI38 cells to MIC for methicillin resistant Staphylococcus aureus NCTC 13616; format: toxicity, cell-based
[23] = Selectivity ratio of cytotoxicity against human WI38 cells to MIC for methicillin resistant Staphylococcus aureus NCTC 13277; format: toxicity, cell-based
[24] = molecular target: T1, LexA repressor (Escherichia coli) (UniProt P0A7C2); test: Induction of Escherichia coli K12 MG1655 lexA promotor measured at 30 mins interval for 20 hrs by fluorescence assay relative to control; conditions: Escherichia coli str. K-12 substr. MG1655
T1 sequence (whole entry): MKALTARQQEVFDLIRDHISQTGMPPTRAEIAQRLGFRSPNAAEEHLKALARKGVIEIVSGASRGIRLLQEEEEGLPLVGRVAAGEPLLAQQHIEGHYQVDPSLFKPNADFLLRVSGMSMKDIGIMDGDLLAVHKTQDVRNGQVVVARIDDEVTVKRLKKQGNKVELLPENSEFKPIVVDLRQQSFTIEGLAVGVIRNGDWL

[25] = molecular target: T2, DNA repair protein RecN (Escherichia coli) (UniProt P05824); test: Induction of Escherichia coli K12 MG1655 recN promotor measured at 30 mins interval for 20 hrs by fluorescence assay relative to control; conditions: Escherichia coli str. K-12 substr. MG1655
T2 sequence (whole entry): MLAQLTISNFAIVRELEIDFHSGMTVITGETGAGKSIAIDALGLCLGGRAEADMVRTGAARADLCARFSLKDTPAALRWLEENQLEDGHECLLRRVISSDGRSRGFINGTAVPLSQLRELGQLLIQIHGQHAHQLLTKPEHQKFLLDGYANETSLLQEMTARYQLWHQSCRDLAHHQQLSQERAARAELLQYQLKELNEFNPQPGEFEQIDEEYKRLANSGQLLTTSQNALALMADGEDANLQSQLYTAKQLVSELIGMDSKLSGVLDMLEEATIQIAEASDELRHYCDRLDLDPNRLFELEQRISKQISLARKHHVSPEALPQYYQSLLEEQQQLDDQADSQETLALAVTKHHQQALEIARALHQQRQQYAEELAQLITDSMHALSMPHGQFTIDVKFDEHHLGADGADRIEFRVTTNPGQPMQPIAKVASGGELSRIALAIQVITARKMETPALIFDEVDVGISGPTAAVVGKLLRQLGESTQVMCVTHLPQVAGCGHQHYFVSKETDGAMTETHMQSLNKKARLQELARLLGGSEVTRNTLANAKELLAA

[26] = molecular target: T3, Cell division inhibitor SulA (Escherichia coli K-12) (UniProt P0AFZ5); test: Induction of Escherichia coli K12 MG1655 sulA promotor measured at 30 mins interval for 20 hrs by fluorescence assay relative to control; conditions: Escherichia coli str. K-12 substr. MG1655
T3 sequence (whole entry): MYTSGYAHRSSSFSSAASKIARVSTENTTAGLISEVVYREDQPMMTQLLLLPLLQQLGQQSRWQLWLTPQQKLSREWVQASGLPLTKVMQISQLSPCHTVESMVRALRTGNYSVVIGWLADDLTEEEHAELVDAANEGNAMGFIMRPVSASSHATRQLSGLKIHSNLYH

Klebsiella pneumoniae [27] = test: Antimicrobial activity against Klebsiella pneumoniae tnkp1_lr150124p14q189 by microdilution broth method; format: functional
Klebsiella pneumoniae [28] = test: Bactericidal activity against multidrug-resistant Klebsiella pneumoniae NCTC 13368 assessed as viable bacterial count at 4 times MIC measured after 4 to 24 hrs by Miles-Misra dilution method based time-kill assay; format: functional, organism-based
Klebsiella pneumoniae [29] = test: Antimicrobial activity against Klebsiella pneumoniae M6 assessed as mutation frequency at 4 times MIC measured after 48 hrs; format: functional

COc1cc2c(cc1OCCCC(=O)Nc1cc(C(=O)Nc3ccc4oc(C(=O)N5CCSCC5)cc4c3)n(C)c1)N=C[C@@H]1CCCN1C2=O
Ratio (Klebsiella pneumoniae [1]): 4
Ratio (Klebsiella pneumoniae [2]): 4
MIC (Klebsiella pneumoniae [3]): 1 µg/mL (≈ 1.43 µM)
MIC (Pseudomonas aeruginosa [4]): 32 to 128 µg/mL (≈ 45.8 to 183 µM)
MIC (Enterococcus faecalis): 0.25 µg/mL (≈ 0.358 µM)
MIC (Klebsiella pneumoniae [5]): 1 µg/mL (≈ 1.43 µM)
MIC (Klebsiella pneumoniae [6]): 4 µg/mL (≈ 5.72 µM)
MIC (Acinetobacter baumannii [7]): 4 µg/mL (≈ 5.72 µM)
MIC (Escherichia coli [8]): 4 µg/mL (≈ 5.72 µM)
MIC (Escherichia coli [9]): 2 µg/mL (≈ 2.86 µM)
MIC (Escherichia coli [10]): 1 µg/mL (≈ 1.43 µM)
MIC (Escherichia coli [11]): 2 µg/mL (≈ 2.86 µM)
MIC (Burkholderia multivorans): > 32 µg/mL
MIC (Klebsiella pneumoniae [12]): ≥ 128 µg/mL
MIC (Klebsiella pneumoniae [13]): 0.12 to 1 µg/mL
MIC (Acinetobacter baumannii [14]): 1 µg/mL
MIC (Pseudomonas aeruginosa [15]): > 32 µg/mL
MIC (Klebsiella pneumoniae [16]): 4 µg/mL
MIC (Pseudomonas aeruginosa [17]): > 32 µg/mL
Ratio (Klebsiella pneumoniae [18]): 4
Ratio (Pseudomonas aeruginosa [19]): >=8 - 64
fold change (FC) (DNA): 3 to 4
selectivity ratio [20]: 10
selectivity ratio [21]: 10
selectivity ratio [22]: 100
selectivity ratio [23]: 100
fold change (FC) [24]: 5 to 9
fold change (FC) [25]: 6 to 11
fold change (FC) [26]: 6 to 7
MIC (Klebsiella pneumoniae [27]): > 128 µg/mL

COc1cc2c(cc1OCCCC(=O)Nc1cc(C(=O)Nc3ccc4sc(C(=O)N(C)C)cc4c3)n(C)c1)N=C[C@@H]1CCCN1C2=O
Ratio (Klebsiella pneumoniae [2]): 4
MIC (Pseudomonas aeruginosa [4]): > 32 µg/mL
MIC (Enterococcus faecalis): 0.03 µg/mL (≈ 0.0457 µM)
MIC (Klebsiella pneumoniae [5]): 1 µg/mL (≈ 1.52 µM)
MIC (Klebsiella pneumoniae [6]): 1 µg/mL (≈ 1.52 µM)
MIC (Escherichia coli [8]): 0.5 µg/mL (≈ 0.761 µM)
MIC (Escherichia coli [9]): 1 µg/mL (≈ 1.52 µM)
MIC (Escherichia coli [10]): 0.5 µg/mL (≈ 0.761 µM)
MIC (Escherichia coli [11]): 0.5 µg/mL (≈ 0.761 µM)
MIC (Burkholderia multivorans): 2 µg/mL (≈ 3.05 µM)
Activity (Klebsiella pneumoniae [28]): Below limit of detection
MIC (Klebsiella pneumoniae [12]): > 32 µg/mL
MIC (Klebsiella pneumoniae [13]): 0.06 to 0.5 µg/mL
MIC (Acinetobacter baumannii [14]): 0.25 µg/mL
MIC (Pseudomonas aeruginosa [15]): > 32 µg/mL
MIC (Klebsiella pneumoniae [16]): 0.25 µg/mL
MIC (Pseudomonas aeruginosa [17]): 16 µg/mL
Ratio (Pseudomonas aeruginosa [19]): >=4 - 16
fold change (FC) (DNA): 3 to 4
selectivity ratio [20]: 10
selectivity ratio [21]: 10
selectivity ratio [22]: 100
selectivity ratio [23]: 100
fold change (FC) [24]: 5 to 9
fold change (FC) [25]: 6 to 11
fold change (FC) [26]: 6 to 7
Activity (Klebsiella pneumoniae [29]): 1 ×10⁻⁶ No_unit
MIC (Klebsiella pneumoniae [27]): 16 to 32 µg/mL (≈ 24.4 to 48.7 µM)

From ChEMBL document CHEMBL4610120, “New Broad-Spectrum Antibiotics Containing a Pyrrolobenzodiazepine Ring with Activity against Multidrug-Resistant Gram-Negative Bacteria” (J Med Chem, 2020)
